Experimental findings from ChEMBL document CHEMBL3351479, “Novel acylureidoindolin-2-one derivatives as dual Aurora B/FLT3 inhibitors for the treatment of acute myeloid leukemia” (Eur J Med Chem, 2014) are described below.

Assay [1] concerns MV4-11. Briefly: Cytotoxicity against human MV4-11 cells assessed as cell viability after 48 hrs by MTT assay. Type of assay: functional, cell-based. The settings on record: Homo sapiens, MV4-11, 48 h. (Tetrazolium assays rely on reduction of a dye to a coloured formazan, in cell work by metabolically active cells.)
Assay [2] concerns MOLM-13. Briefly: Cytotoxicity against human MOLM13 cells assessed as cell viability after 48 hrs by MTT assay. Type of assay: functional, cell-based. The settings on record: MOLM-13, 48 h.
Assay [3] deals with THP-1. Description: Cytotoxicity against human THP1 cells assessed as cell viability after 48 hrs by MTT assay. It counts as functional, cell-based. The settings on record: Homo sapiens, THP-1, 48 h.
Assay [4] in a line: Cytotoxicity against human HL60 cells assessed as cell viability after 48 hrs by MTT assay. It counts as functional, cell-based. The settings on record: HL-60, 48 h.
Another assay addresses Aurora kinase B (Homo sapiens, UniProt Q96GD4). Briefly: Inhibition of Aurora B (unknown origin) using HLRRASLG substrate at 1 uM.
Assay [5] has as its target Receptor-type tyrosine-protein kinase FLT3 (Homo sapiens) (UniProt P36888). Briefly: Inhibition of FLT3 (unknown origin) using EAIYAAPFAKKK substrate at 1 uM.
Assay [6] deals with MV4-11. Description: Cytotoxicity against human MV4-11 cells assessed as cell viability at 1 uM after 48 hrs by MTT assay. It counts as functional. Particulars: MV4-11, 48 h, read-out: Activity.
The test system of assay [7] is MOLM-13. Description: Cytotoxicity against human MOLM13 cells assessed as cell viability at 1 uM after 48 hrs by MTT assay. Type of assay: functional. The settings on record: MOLM-13, 48 h, read-out: Activity.
Assay [8] concerns THP-1. Description: Cytotoxicity against human THP1 cells assessed as cell viability at 1 uM after 48 hrs by MTT assay. It counts as functional. The settings on record: THP-1, 48 h, read-out: Activity.

Molecules are shown by their SMILES. Some results are limits rather than exact numbers.

Aurora kinase B, sequence (Q96GD4 whole entry): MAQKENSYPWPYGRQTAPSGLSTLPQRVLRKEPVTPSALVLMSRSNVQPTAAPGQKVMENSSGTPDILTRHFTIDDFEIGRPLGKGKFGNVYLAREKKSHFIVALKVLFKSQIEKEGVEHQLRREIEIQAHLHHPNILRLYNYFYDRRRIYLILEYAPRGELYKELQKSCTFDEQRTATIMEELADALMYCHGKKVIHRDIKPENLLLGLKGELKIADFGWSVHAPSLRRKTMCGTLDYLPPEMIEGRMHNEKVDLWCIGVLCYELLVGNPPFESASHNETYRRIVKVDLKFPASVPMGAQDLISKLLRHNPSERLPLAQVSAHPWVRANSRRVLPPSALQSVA
Receptor-type tyrosine-protein kinase FLT3 (Homo sapiens), sequence (P36888 whole entry): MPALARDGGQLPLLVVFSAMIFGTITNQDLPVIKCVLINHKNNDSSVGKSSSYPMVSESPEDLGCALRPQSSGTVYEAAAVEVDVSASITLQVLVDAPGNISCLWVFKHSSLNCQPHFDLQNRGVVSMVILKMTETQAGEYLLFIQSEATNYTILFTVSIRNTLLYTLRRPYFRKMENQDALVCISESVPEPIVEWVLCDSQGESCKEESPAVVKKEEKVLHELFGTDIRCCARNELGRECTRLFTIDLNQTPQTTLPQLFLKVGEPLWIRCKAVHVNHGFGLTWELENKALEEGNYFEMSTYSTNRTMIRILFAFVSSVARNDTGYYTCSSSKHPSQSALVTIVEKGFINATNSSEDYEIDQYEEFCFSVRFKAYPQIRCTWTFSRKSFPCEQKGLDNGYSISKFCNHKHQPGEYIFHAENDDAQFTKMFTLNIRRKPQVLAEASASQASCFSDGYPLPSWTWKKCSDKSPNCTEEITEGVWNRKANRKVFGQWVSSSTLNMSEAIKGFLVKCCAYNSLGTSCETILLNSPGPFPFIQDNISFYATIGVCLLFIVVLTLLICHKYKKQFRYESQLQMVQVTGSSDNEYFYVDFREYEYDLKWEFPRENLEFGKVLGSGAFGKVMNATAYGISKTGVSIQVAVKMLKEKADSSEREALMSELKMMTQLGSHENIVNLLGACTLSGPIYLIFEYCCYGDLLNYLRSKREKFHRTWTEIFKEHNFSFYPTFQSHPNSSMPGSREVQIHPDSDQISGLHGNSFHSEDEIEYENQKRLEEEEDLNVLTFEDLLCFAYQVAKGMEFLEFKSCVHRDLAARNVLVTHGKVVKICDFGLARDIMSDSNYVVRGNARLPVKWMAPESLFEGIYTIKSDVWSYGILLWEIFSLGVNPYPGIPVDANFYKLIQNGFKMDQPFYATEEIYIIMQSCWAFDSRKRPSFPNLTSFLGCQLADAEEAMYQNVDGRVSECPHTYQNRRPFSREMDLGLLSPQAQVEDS

As usually defined, the IC50 is the midpoint of a concentration-inhibition curve. Consider `O=C(NC(=O)c1ccc(C(F)(F)F)cc1)Nc1ccc2c(c1)NC(=O)/C2=C\c1ccc[nH]1`, for which the IC50 was found to be 191 nM in the assay with MV4-11 [1], 196 nM in the assay with MOLM-13 [2], 326 nM with THP-1 [3] and 293 nM in [4].
In the same order, the values of `COc1ccc(C(=O)NC(=O)Nc2cc3c(cc2F)/C(=C/c2[nH]c(C)c(C(=O)O)c2C)C(=O)N3)c(F)c1` are 35.9 nM, 17.8 nM, 76.3 nM and 28.6 nM.
On the same counts, the results for `COc1ccc(C(=O)NC(=O)Nc2ccc3c(c2)NC(=O)/C3=C\c2[nH]c(C)c(CCC(=O)N3CCN(C)CC3)c2C)c(F)c1` are 11 nM, 9.2 nM, 65 nM and 15.7 nM.
As to `O=C(NC(=O)c1ccc(Cl)cc1)Nc1ccc2c(c1)NC(=O)/C2=C\c1ccc[nH]1`, the IC50 in the assay on MV4-11 [1] stood at 19.3 nM; in the assay on MOLM-13 [2], 19.1 nM; with THP-1 [3] it was 81.2 nM; in assay [4] it was 21.6 nM.
As to `COc1ccc(C(=O)NC(=O)Nc2ccc3c(c2)NC(=O)/C3=C\c2[nH]c(C)c(CCC(=O)O)c2C)c(F)c1`, the IC50 in the assay on MV4-11 [1] turned out to be 6.1 nM; in the assay on MOLM-13 [2] it was 4 nM; with THP-1 [3], 61.3 nM; in assay [4], 16.7 nM.
By inhibition is commonly meant the drop in the measured response relative to a control, in per cent. High values mean strong suppression, low ones little suppression. As for `COc1ccc(/C=C2/C(=O)Nc3cc(NC(=O)NC(=O)c4ccc(OC)cc4)ccc32)cc1`, the IC50 with MV4-11 [1] worked out at 228 nM; in the assay on MOLM-13 [2], 238 nM; with THP-1 [3], 382 nM; in [4] it was 336 nM. In addition, the inhibition is 56% on Aurora kinase B and 43% in assay [5].
In the case of `COc1ccc(C(=O)NC(=O)Nc2cc3c(cc2F)/C(=C/c2[nH]c(C)c(CCC(=O)O)c2C)C(=O)N3)c(F)c1`, the IC50 with MV4-11 [1] was 6.5 nM; with MOLM-13 [2] it was 2.3 nM; with THP-1 [3], 55.9 nM; in assay [4], 8.9 nM.
In the case of `COc1ccc(C(=O)NC(=O)Nc2ccc3c(c2)NC(=O)/C3=C/c2ccc(N(C)C)cc2)cc1`, the concentration for half-maximal inhibition (IC50) in the assay with MV4-11 [1] was 45.5 nM; in the assay with MOLM-13 [2] it was 42.5 nM; in the assay with THP-1 [3], 88.9 nM; in assay [4], 50.4 nM. In addition, the inhibition amounted to 59% against Aurora kinase B and 40% in assay [5].
In the case of `COc1ccc(C(=O)NC(=O)Nc2cccc3c2/C(=C/c2ccc[nH]2)C(=O)N3)cc1`, the IC50 in the assay with MV4-11 [1] is 357 nM; in the assay with MOLM-13 [2], 303 nM; in the assay with THP-1 [3] it was 356 nM; in [4], 334 nM. At Aurora kinase B, this compound returned an inhibition of 11%.
As to `O=C(NC(=O)c1ccc(Cl)c(Cl)c1)Nc1ccc2c(c1)NC(=O)/C2=C\c1ccc[nH]1`, the IC50 was found to be 31.6 nM in the assay with MV4-11 [1], 29 nM in the assay on MOLM-13 [2], 90.9 nM in the assay with THP-1 [3] and 35 nM in [4].
Take `O=C(NC(=O)c1ccccc1F)Nc1ccc2c(c1)NC(=O)/C2=C\c1ccc[nH]1`: the IC50 in the assay with MV4-11 [1] worked out at 234 nM; in the assay on MOLM-13 [2] it was 232 nM; with THP-1 [3] it was 331 nM; in assay [4], 268 nM.
Consider `CCN(CC)CCNC(=O)c1c(C)[nH]c(/C=C2\C(=O)Nc3ccc(F)cc32)c1C` [SUNITINIB], for which the half-maximal inhibitory concentration (IC50) amounted to 24.3 nM in the assay on MV4-11 [1], 17.7 nM in the assay on MOLM-13 [2], 45.7 nM in the assay with THP-1 [3] and 36.8 nM in assay [4].
Take `CN(C)c1ccc(C(=O)NC(=O)Nc2ccc3c(c2)NC(=O)/C3=C\c2ccc[nH]2)cc1`: the IC50 in the assay on MV4-11 [1] is 261 nM; in the assay on MOLM-13 [2], 260 nM; with THP-1 [3] it was 262 nM; in [4], 269 nM.
With `COc1ccc(C(=O)NC(=O)Nc2ccc3c(c2)/C(=C/c2ccc[nH]2)C(=O)N3)cc1`, the IC50 with MV4-11 [1] was found to be 256 nM; in the assay on MOLM-13 [2], 222 nM; in the assay on THP-1 [3], 373 nM; in assay [4], 301 nM. Further, the inhibition against Aurora kinase B came out at 39%.
Take `COc1ccc(C(=O)NC(=O)Nc2ccc3c(c2)NC(=O)/C3=C\c2[nH]c(C)c(C(=O)N3CCN(C)CC3)c2C)c(F)c1`: the IC50 turned out to be 10.6 nM in the assay with MV4-11 [1], 6.9 nM in the assay on MOLM-13 [2], 95.1 nM in the assay with THP-1 [3] and 15.7 nM in assay [4].
`COc1ccc(C(=O)NC(=O)Nc2ccc3c(c2)NC(=O)/C3=C\c2[nH]c(C)c(CC(=O)O)c2C)cc1`: the IC50 came to 4.2 nM in the assay with MV4-11 [1], 3.1 nM in the assay on MOLM-13 [2], 69 nM in the assay on THP-1 [3] and 8.1 nM in assay [4].
As to `COc1ccc(C(=O)NC(=O)Nc2ccc3c(c2)NC(=O)/C3=C\c2[nH]c(C)cc2C)cc1`, the IC50 in the assay on MV4-11 [1] turned out to be 62.8 nM; with MOLM-13 [2] it was 42.8 nM; in the assay on THP-1 [3], 116 nM; in [4] it was 45.8 nM.
Turning to `COc1ccc(C(=O)NC(=O)Nc2cccc3c2NC(=O)/C3=C\c2ccc[nH]2)cc1`, the IC50 in the assay on MV4-11 [1] is above 500 nM; in the assay with MOLM-13 [2], above 500 nM; in the assay on THP-1 [3] it was above 500 nM; in assay [4] it was 488 nM. For the same compound, the inhibition (against Aurora kinase B; in [5]) was 7% each time. For the same compound, the viability at 1 µM in the assay on MV4-11 [6] came to 78%; with MOLM-13 [7] it was 72%; in the assay with THP-1 [8], 53%.
As for `CCN(CC)CCNC(=O)c1c(C)[nH]c(/C=C2\C(=O)Nc3cc(NC(=O)NC(=O)c4ccc(OC)cc4F)ccc32)c1C`, the half-inhibitory concentration (IC50) with MV4-11 [1] turned out to be 17.7 nM; with MOLM-13 [2], 12.9 nM; in the assay with THP-1 [3], 41.2 nM; in [4], 20.3 nM.
For the compound `COc1ccc(C(=O)NC(=O)Nc2ccc3c(c2)NC(=O)/C3=C\c2[nH]c(C)c(C(=O)NCCN(C)C)c2C)c(F)c1`, the IC50 with MV4-11 [1] stood at 8.1 nM; in the assay on MOLM-13 [2] it was 5.3 nM; in the assay with THP-1 [3] it was 63.7 nM; in assay [4] it was 14.1 nM.
Consider `Cc1ccc(C(=O)NC(=O)Nc2ccc3c(c2)NC(=O)/C3=C\c2ccc[nH]2)cc1`, for which the IC50 in the assay with MV4-11 [1] stood at 285 nM; in the assay with MOLM-13 [2], 212 nM; in the assay on THP-1 [3], 356 nM; in assay [4] it was 301 nM.
As for `COc1ccc(C(=O)NC(=O)Nc2ccc3c(c2)NC(=O)/C3=C\c2[nH]c(C)c(CCC(=O)N3CCOCC3)c2C)c(F)c1`, the IC50 with MV4-11 [1] stood at 17.9 nM; in the assay with MOLM-13 [2] it was 16.1 nM; with THP-1 [3], 70.3 nM; in assay [4] it was 31.2 nM.
Consider `CCN(CCO)CCCOc1ccc2c(Nc3cc(CC(=O)Nc4cccc(F)c4)[nH]n3)ncnc2c1` [DEFOSBARASERTIB], for which the IC50 worked out at 8.6 nM with MV4-11 [1], 9.7 nM in the assay with MOLM-13 [2], 25.1 nM with THP-1 [3] and 12.7 nM in assay [4].
On the same counts, the results for `COc1ccc(C(=O)NC(=O)Nc2ccc3c(c2)NC(=O)/C3=C\c2[nH]c(C)c(C(=O)N3CCOCC3)c2C)c(F)c1` are 16.8 nM, 10.8 nM, 102 nM and 24 nM.
In the same order, the values of `O=C(NC(=O)c1ccc(Cl)c(C(F)(F)F)c1)Nc1ccc2c(c1)NC(=O)/C2=C\c1ccc[nH]1` are 14.1 nM, 11.1 nM, 68.8 nM and 23.2 nM.
